In ChEMBL document CHEMBL4316605, “3-Acyltetramic acids as a novel class of inhibitors for human kallikreins 5 and 7” (Bioorg Med Chem Lett, 2019) one finds Activity and IC50 data, which are given here for nine compounds.

Experiment [1] concerns the target Kallikrein-5 (Homo sapiens) (UniProt Q9Y337). Nature of the experiment: Inhibition of human KLK5 assessed as residual enzyme activity at 10 uM.
In experiment [2] the target is T1, Kallikrein-5 (Homo sapiens, UniProt Q9Y337).
T1 sequence (Q9Y337 whole entry): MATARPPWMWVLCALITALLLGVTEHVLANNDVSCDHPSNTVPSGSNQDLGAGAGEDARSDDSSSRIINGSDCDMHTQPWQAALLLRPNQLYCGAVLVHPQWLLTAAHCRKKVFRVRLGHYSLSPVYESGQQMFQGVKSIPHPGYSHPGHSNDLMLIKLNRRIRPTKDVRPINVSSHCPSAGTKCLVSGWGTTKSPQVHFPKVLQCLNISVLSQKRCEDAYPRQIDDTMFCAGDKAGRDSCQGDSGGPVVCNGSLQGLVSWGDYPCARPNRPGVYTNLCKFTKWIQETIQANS
Nature of the experiment: Inhibition of human KLK5 assessed as reduction in enzyme activity.

The target of experiment [3] is T2, Kallikrein-7 (Homo sapiens, UniProt P49862). The experiment can be described thus: Inhibition of human KLK7 assessed as residual enzyme activity at 10 uM.
Target sequence in this assay (P49862 30-253 limits assumed): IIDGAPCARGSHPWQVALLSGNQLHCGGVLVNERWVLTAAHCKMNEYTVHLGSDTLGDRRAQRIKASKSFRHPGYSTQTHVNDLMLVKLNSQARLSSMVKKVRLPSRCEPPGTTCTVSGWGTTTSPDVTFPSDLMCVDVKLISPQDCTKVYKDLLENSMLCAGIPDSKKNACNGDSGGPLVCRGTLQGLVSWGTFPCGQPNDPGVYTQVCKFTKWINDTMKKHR
In experiment [4] the target is T2, Kallikrein-7. Nature of the experiment: Inhibition of human KLK7 assessed as reduction in enzyme activity.
Target sequence in this assay (P49862 whole entry): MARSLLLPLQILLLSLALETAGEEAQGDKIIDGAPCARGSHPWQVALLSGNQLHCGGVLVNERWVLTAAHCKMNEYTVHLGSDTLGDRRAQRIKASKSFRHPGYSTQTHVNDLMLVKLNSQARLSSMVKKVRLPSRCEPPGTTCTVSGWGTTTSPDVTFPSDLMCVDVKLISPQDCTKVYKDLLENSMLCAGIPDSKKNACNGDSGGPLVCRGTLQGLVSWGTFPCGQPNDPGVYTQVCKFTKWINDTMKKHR
Experiment [5] deals with T3, Trypsin (Homo sapiens, UniProt P07477+P07478+P35030). The experiment can be described thus: Inhibition of trypsin (unknown origin) assessed as residual enzyme activity at 10 uM. It is filed as protein assay.
In experiment [6] the target is T3, Trypsin. The experiment can be described thus: Inhibition of trypsin (unknown origin) assessed as reduction in enzyme activity. In kind it is protein assay.
The target of experiment [7] is Chymotrypsin (Homo sapiens) (UniProt Q99895+P17538+P40313+Q6GPI1). Nature of the experiment: Inhibition of Chymotrypsin (unknown origin) assessed as residual enzyme activity at 10 uM. It is filed as protein assay.

For `CCCCCCCCCCC/C(O)=C1/C(=O)[C@H](Cc2ccccc2)N(C(=O)OC(C)(C)C)C1=O`, the Activity was 0% in experiment [1], 0% in experiment [3], 10% in experiment [5] and 98% in experiment [7]. Besides, the IC50 (usually the concentration at which inhibition is half-maximal) in experiment [2] amounted to 3600 nM; in experiment [4] it was 2300 nM; in experiment [6], 2100 nM.
In the case of `CCCCCCCC/C=C\CCCCCCC/C(O)=C1/C(=O)[C@H](Cc2ccccc2)N(C(=O)OC(C)(C)C)C1=O`, the Activity in experiment [1] stood at 0%; in experiment [3], 0%; in experiment [5], 5%; in experiment [7] it was 87%. Further, the IC50 in experiment [2] was determined as 1800 nM; in experiment [4], 2500 nM; in experiment [6], 2300 nM.
Regarding `CC(C)C/C(O)=C1/C(=O)[C@H](Cc2ccccc2)N(C(=O)OC(C)(C)C)C1=O`, the Activity came out at 80% in experiment [1] and 70% in experiment [3].
Regarding `CCCCC/C=C\C/C=C\CCCCCCC/C(O)=C1/C(=O)[C@H](Cc2ccccc2)N(C(=O)OC(C)(C)C)C1=O`, the Activity in experiment [1] and in experiment [3] was 50% throughout. The half-inhibitory concentration (IC50) in experiment [2] and in experiment [4] was 14000 nM each time.
As for `CCCCCCCCCCCCCCCCC/C(O)=C1/C(=O)[C@H](Cc2ccccc2)N(C(=O)OC(C)(C)C)C1=O`, the Activity in experiment [1] and in experiment [3] was 0% in each case. For the same compound, the IC50 is 17000 nM in experiment [2] and 2800 nM in experiment [4].
On to `CCCC(C)/C(O)=C1/C(=O)[C@H](Cc2ccccc2)N(C(=O)OC(C)(C)C)C1=O` (some centres not stated), for which the Activity in experiment [1] and in experiment [3] was 0% in each case. Further, the IC50 was 8000 nM in experiment [2] and 2500 nM in experiment [4].
`CC/C(O)=C1/C(=O)[C@H](Cc2ccccc2)N(C(=O)OC(C)(C)C)C1=O`: the figures for the Activity in experiment [1] and in experiment [3] were 80% and 50%, respectively. The IC50 in experiment [4] stood at 11000 nM.
For the compound `CCCCCCCCCCCCCCC/C(O)=C1/C(=O)[C@H](Cc2ccccc2)N(C(=O)OC(C)(C)C)C1=O`, the Activity in experiment [1] and in experiment [3] was 0% each time. For the same compound, the IC50 in experiment [2] was determined as 12000 nM; in experiment [4] it was 2900 nM.
Turning to `CCCCCCCCCCCCC/C(O)=C1/C(=O)[C@H](Cc2ccccc2)N(C(=O)OC(C)(C)C)C1=O`, the Activity in experiment [1] was 0%; in experiment [3] it was 0%; in experiment [5], 20%; in experiment [7], 90%. For the same compound, the half-inhibitory concentration (IC50) came to 4900 nM in experiment [2], 1700 nM in experiment [4] and 2400 nM in experiment [6].
